pIC50: −log10 of the molar value.
Assays:
[1] = molecular target: T1, KAT6B (Homo sapiens, UniProt Q8WYB5); experiment: KATs acetyltransferase enzyme activity assay (TR-FRET), KAT6B; format: biochemical; settings: Biotin-H3 (1-21) and AcCOA, 90 minutes at room temperature
T1 construct: purchased Active Motif 81224
Procedure, shortened: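 TR-FRET assay in Tris-HCl buffer: enzyme preincubated with compound 15 min at room temperature, then biotin-H3(1-21) peptide and acetyl-CoA added for 90 min at room temperature. Acetylation detected with Eu-anti-acetyl-histone H4 lysine antibody and ULight-streptavidin (60 min), 665/620 nm ratio; IC50 from four-parameter logistic fit.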

[2] = system: human breast cancer ZR-75-1 cell xenografts; experiment: In vivo efficacy study in BALB/c nude mouse model with subcutaneous ZR-75-1 xenografts; settings: for T/C / TGI / Tumor Volume: 0.3 mg/kg; for T/C / TGI: based on tumor volume on day 21 post-administration; for Tumor Volume: day 21 post-administration, female BALB/c nude mice, 7 per group
Excerpt: IV. In vivo efficacy study of test drug Compound 2, Compound 5-P2, Compound 3, and Compound A in a BALB/c nude mouse model with subcutaneously implanted human breast cancer ZR-75-1 cell xenografts
The objective of this experiment is to evaluate the in vivo efficacy of the test drug Compound 2, Compound 5-P2, Compound 3, and Compound A in a BALB/c nude mouse model with subcutaneously implanted human breast cancer ZR-75-1 cell xenografts.
(§1) • Species: Mouse; • Strain: BALB/c nude mice; • Age and weight: 6-8 weeks old, weighing 19-26 grams; • Gender: Female; • Supplier: GemPharmatech Co., Ltd.; • Compound source: Compound A: [drawing 190] prepared with reference to patent CN114364672A.
Human breast cancer ZR-75-1 (ATCC, CRL-1500) cells were cultured in vitro as adherent cultures. The culture conditions were: 1640 medium supplemented with 10 vol% FBS, 100 U/mL penicillin, and 100 µg/mL streptomycin, incubated in a 37°C, 5% CO2 cell culture incubator. Routine passaging was performed twice a week. When cell confluence reached 80%-90% and the cell number met the requirements, cells were harvested, counted, and inoculated.
Three days before cell implantation, a 17β-estrogen pellet (0.36 mg) was implanted into the left dorsal side of each mouse. Starting one week after pellet implantation, animals were urinated 2-3 times per week. If necessary, animals were urinated daily.
(§2) A mixture containing 10×10^6 ZR-75-1 cells in 100 µL PBS and 100 µL Matrigel (final volume was 200 µL) was subcutaneously implanted into the right dorsal side (upper side) of each mouse. On day 18 after cell implantation, when the average tumor volume reached 138 mm^3, grouping and administration were initiated. Mice with tumor volumes ranging from 100 to 212 mm^3 were selected for the study. Mice were randomly assigned to groups based on body weight and tumor volume, with 7 mice per group. The day of grouping was designated as PG-D0, and administration for all groups started from PG-D0.
The experimental index is to investigate whether tumor growth is inhibited, delayed, or cured. Tumor diameters were measured three times per week using a vernier caliper. Tumor volume was calculated using the formula: V = 0.5a × b^2, where a and b represent the major and minor diameters of the tumor, respectively.
The anti-tumor efficacy of the compounds was evaluated using TGI (%) or the relative tumor proliferation rate T/C (%). TGI (%), reflects the tumor growth inhibition rate. TGI (%) was calculated as: TGI (%) = [1 - (Mean tumor volume of a treatment group at the end of administration - Mean tumor volume of the same treatment group at the start of administration) / (Mean tumor volume of the vehicle control group at the end of treatment - Mean tumor volume of the vehicle control group at the start of treatment)] × 100%.
Relative Tumor Proliferation Rate T/C (%): The calculation formula is as follows: T/C% = TRTV / CRTV ×100 % (TRTV: RTV of the treatment group; CRTV: RTV of the negative control group). The relative tumor volume (RTV) was calculated based on tumor measurement results using the formula RTV = Vt /V0, where V0 is the tumor volume of each mouse measured at the start of grouping and administration (i.e., d0), and Vt is the tumor volume of each mouse at a specific measurement time. The mean value for each group was then calculated. V0 and Vt correspond to tumor volume data from the same mouse.

[3] = molecular target: T2, KAT6A (Homo sapiens, UniProt Q92794); experiment: KATs acetyltransferase enzyme activity assay (TR-FRET), KAT6A; format: biochemical; settings: Biotin-H3 (1-21) and AcCOA, 90 minutes at room temperature
T2 construct: purchased Active Motif 81223
T2 sequence (Q92794 488-778 limits assumed): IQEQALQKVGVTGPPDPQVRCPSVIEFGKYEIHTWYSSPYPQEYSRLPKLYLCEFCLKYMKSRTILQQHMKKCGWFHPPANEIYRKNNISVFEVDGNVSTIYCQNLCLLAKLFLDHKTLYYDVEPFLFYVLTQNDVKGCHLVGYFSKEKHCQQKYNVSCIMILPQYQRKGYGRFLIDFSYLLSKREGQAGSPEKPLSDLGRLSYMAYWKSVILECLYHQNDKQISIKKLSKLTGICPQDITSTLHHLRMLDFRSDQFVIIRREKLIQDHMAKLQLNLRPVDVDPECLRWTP

[4] = Body weight changes and tolerability in the ZR-75-1 xenograft study; format: in vivo, Mouse; settings: result in words; for body weight changes: differences among the groups, FIG. 1
Protocol: as §1, §2
The effects of the test drugs Compound 2, Compound 5-P2, Compound 3, and Compound A on the body weight of the female BALB/c nude mouse model with subcutaneously implanted human breast cancer ZR-75-1 cell xenografts are shown in FIG. 1.

T1 sequence (Q8WYB5 whole entry): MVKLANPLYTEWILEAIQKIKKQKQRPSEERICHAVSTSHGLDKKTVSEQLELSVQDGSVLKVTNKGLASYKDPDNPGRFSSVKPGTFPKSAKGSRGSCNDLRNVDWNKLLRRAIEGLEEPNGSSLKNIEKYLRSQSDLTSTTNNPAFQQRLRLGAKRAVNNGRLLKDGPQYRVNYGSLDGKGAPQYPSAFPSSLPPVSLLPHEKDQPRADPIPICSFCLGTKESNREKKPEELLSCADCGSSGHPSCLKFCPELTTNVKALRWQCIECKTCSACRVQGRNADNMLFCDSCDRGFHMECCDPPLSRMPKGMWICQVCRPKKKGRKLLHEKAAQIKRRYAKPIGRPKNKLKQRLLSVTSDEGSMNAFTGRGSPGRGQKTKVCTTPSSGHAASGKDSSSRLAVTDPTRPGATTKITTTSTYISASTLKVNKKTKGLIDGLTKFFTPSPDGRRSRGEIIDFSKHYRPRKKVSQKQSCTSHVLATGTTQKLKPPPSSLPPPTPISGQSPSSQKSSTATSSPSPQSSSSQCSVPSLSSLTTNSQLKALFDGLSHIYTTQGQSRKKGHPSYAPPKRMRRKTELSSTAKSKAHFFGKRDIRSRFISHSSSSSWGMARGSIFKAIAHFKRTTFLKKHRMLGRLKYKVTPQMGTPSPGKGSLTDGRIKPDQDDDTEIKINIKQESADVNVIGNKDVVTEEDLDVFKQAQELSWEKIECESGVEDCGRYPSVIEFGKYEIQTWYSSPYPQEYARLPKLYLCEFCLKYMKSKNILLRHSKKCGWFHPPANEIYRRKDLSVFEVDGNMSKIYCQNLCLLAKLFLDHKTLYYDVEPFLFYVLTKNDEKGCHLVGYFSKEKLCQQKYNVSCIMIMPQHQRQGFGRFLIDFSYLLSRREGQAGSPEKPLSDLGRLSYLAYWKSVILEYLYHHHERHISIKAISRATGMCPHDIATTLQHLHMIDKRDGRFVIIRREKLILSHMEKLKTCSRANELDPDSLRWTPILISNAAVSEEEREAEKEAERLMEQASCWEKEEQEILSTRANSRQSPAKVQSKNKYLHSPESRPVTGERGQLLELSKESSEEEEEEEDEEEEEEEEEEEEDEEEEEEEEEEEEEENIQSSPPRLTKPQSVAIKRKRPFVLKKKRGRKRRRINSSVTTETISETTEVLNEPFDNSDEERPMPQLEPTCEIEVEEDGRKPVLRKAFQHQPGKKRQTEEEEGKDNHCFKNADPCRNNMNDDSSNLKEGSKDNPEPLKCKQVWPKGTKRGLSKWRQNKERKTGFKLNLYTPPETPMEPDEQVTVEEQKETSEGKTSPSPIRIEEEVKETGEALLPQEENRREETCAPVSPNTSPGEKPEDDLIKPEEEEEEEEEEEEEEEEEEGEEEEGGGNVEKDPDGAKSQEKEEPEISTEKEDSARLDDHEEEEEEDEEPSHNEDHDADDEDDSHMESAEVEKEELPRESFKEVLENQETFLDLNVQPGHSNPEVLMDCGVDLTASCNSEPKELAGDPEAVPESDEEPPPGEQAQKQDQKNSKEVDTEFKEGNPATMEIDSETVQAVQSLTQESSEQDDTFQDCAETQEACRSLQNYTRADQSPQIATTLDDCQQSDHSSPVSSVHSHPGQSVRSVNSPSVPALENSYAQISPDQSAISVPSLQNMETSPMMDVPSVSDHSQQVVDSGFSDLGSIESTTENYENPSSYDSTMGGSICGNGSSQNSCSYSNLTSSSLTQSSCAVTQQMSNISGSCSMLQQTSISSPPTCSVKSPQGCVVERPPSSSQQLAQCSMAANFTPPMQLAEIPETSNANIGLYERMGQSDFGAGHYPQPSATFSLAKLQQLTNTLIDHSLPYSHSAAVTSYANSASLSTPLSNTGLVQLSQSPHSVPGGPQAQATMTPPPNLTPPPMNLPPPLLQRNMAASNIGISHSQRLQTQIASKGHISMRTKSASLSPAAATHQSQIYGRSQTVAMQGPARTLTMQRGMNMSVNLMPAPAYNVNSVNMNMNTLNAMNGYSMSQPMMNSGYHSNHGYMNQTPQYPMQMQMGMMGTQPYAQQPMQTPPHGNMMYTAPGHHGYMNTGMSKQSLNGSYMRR

SMILES: COc1ccc2c(c1S(=O)(=O)Nc1noc3cc(Cn4cccn4)cc(OC)c13)OCC21CC1 [Compound 3, N-(6-((1H-Pyrazol-1-yl)methyl)-4-methoxybenzo[d]isoxazol-3-yl)-6-methoxy-2H-spiro[benzofuran-3,1'-cyclopropane]-7-sulfonamide]
- pIC50 [1]: 8.12
- T/C [2]: 12.95%
- TGI [2]: 104.47%
- Tumor Volume [2]: 106 ± 12 mm^3
- anti-tumor effects ([2]; ZR-75-1 xenograft model, tumor growth curves FIG. 2, result in words): more significant anti-tumor effects compared to Compound A
- pIC50 [3]: 8.74
- body weight changes [4]: not significant
- tolerability in tumor-bearing mice ([4]; human breast cancer ZR-75-1 model): tolerated

SMILES: COc1ccccc1S(=O)(=O)Nc1noc2cc(Cn3cccn3)cc(OC)c12 [Compound A, reference compound]
- T/C [2]: 33.17%
- TGI [2]: 80.40%
- Tumor Volume [2]: 278 ± 44 mm^3
- body weight changes [4]: not significant

From patent EP4741389A1, “KAT6 INHIBITOR” (Shanghai Qilu Pharmaceutical Research and Development …, priority 2023, dated 2025)
